Paper PMC6199744, “Development of Chemical Proteomics for the Folateome and Analysis of the Kinetoplastid Folateome” (ACS Infectious Diseases, 2018)

Test system: L. major lysate proteins
Test: Multitargeted bead mixture chemoproteomics, single concentration competition, proteome-wide
Type: binding
Details: for fold change / fold change relative to vehicle control: vehicle control = 1; for fold change relative to vehicle control: competition with free ligand

## Nc1nc2cccc(-c3ccccc3)c2n1Cc1ccc(Cl)c(Cl)c1 [compound 3]
Protein LMJF.22.0730 HY[…], CONSERVED
  fold change vs vehicle control: 1.03
Protein LMJF.22.1460 I/6 AUTOANTIGEN-LIKE PROTEIN
  fold change: 1.02
Protein LMJF.22.1540 ALANYL-TRNA SYNTHETASE, PUTATIVE
  fold change vs vehicle control: 0.95
Protein LMJF.23.0370 […] OXIDASE SUBUNIT 10, PUTATIVE
  fold change vs vehicle control: 1.06
Protein LMJF.23.0830 NA/H ANTIPORTER-LIKE PROTEIN
  fold change: 1.19
Protein LMJF.23.1020 HY[…], UNKNOWN FUNCTION
  fold change: 0.96
Protein LMJF.23.1220 T-COMPLEX PROTEIN 1, GAMMA SUBUNIT, PUTATIVE
  fold change: 1.01
Protein LMJF.24.0140 ANKYRIN/TPR REPEAT PROTEIN
  fold change vs vehicle control: 0.99
Protein LMJF.24.0280 DYNEIN INTERMEDIATE-CHAIN-LIKE PROTEIN
  fold change: 0.96
Protein LMJF.24.0770 MALIC ENZYME, PUTATIVE
  fold change: 0.99
Protein LMJF.24.1510 IGE-DEPENDENT HISTAMINE-RELEASING FACTOR, PUTATIVE
  fold change relative to vehicle control: 1.23
Protein LMJF.24.1630, SUCCINATE DEHYDROGENASE FLAVOPROTEIN, PUTATIVE
  fold change vs vehicle control: 0.9
Protein LMJF.24.1840 LYSOPHOSPHOLIPASE, PUTATIVE
  fold change vs vehicle control: 1.09
Protein LMJF.24.2060 TRANSKETOLASE
  fold change relative to vehicle control: 1.1
Protein LMJF.24.2250 FATTY-ACID DESATURASE, PUTATIVE
  fold change: 0.99
Protein LMJF.25.0120 ELECTRON TRANSFER FLAVOPROTEIN, PUTATIVE
  fold change vs vehicle control: 0.93
Protein LMJF.25.0260 DYNEIN LIGHT CHAIN 1, CYTOPLASMIC, PUTATIVE
  fold change vs vehicle control: 1.01
Protein LMJF.25.0910 C[…]
  fold change relative to vehicle control: 1.18
Protein LMJF.25.1180, ATPASE BETA SUBUNIT, PUTATIVE
  fold change vs vehicle control: 1.09
Protein LMJF.25.1610 HY[…], CONSERVED
  fold change: 0.9
Protein LMJF.25.1620 HY[…], CONSERVED
  fold change: 1.16
Protein LMJF.26.1240 HEAT SHOCK PROTEIN 70-RELATED PROTEIN
  fold change vs vehicle control: 0.94
Protein LMJF.26.1710 […] OXIDASE SUBUNIT V, PUTATIVE
  fold change vs vehicle control: 1.08
Protein LMJF.26.1960 HY[…], CONSERVED
  fold change vs vehicle control: 0.96
Protein LMJF.26.2000 HY[…], CONSERVED
  fold change vs vehicle control: 1.09
Protein LMJF.27.0420 RIBOKINASE, PUTATIVE
  fold change vs vehicle control: 1.13
Protein LMJF.27.1060 CYSTEINE DESULFURASE, PUTATIVE
  fold change vs vehicle control: 1.05
Protein LMJF.27.1310 ARGINYL-TRNA SYNTHETASE, PUTATIVE
  fold change: 0.9
Protein LMJF.27.2400 HEAT SHOCK PROTEIN DNAJ, PUTATIVE
  fold change vs vehicle control: 0.99
Protein LMJF.28.0110 […] 3 SUBUNIT, PUTATIVE
  fold change vs vehicle control: 0.99
Protein LMJF.28.0930 HY[…], CONSERVED
  fold change vs vehicle control: 1.07
Protein LMJF.28.0950 HY[…], CONSERVED
  fold change vs vehicle control: 1.01
Protein LMJF.28.0980 P27 PROTEIN, PUTATIVE
  fold change vs vehicle control: 1.09
Protein LMJF.28.1950 X-PRO, DIPEPTIDYL-PEPTIDASE,SERINE PEPTIDASE, CLAN SC, FAMILY S15, PUTATIVE
  fold change vs vehicle control: 1.06
Protein LMJF.28.2770 HEAT-SHOCK PROTEIN HSP70, PUTATIVE
  fold change relative to vehicle control: 0.99
Protein LMJF.29.0060 TRYPTOPHANYL-TRNA SYNTHETASE, PUTATIVE
  fold change: 1.05
Protein LMJF.29.0820 CYSTEINE PEPTIDASE C (CPC)
  fold change: 0.91
Protein LMJF.29.0850 HIGH MOBILITY GROUP PROTEIN HOMOLOG TDP-1, PUTATIVE
  fold change relative to vehicle control: 1.27
Protein LMJF.29.1160 TRYPAREDOXIN
  fold change vs vehicle control: 0.99
Protein LMJF.29.1760 PAR[…] PROTEIN 1D, PUTATIVE
  fold change: 0.75
Protein LMJF.29.1780 D[…] PROTEIN, PUTATIVE
  fold change vs vehicle control: 1.05
Protein LMJF.29.2240 AMINOPEPTIDASE, PUTATIVE
  fold change vs vehicle control: 1.03
Protein LMJF.29.2310 ENOYL-COA HYDRATASE/ISOMERASE-LIKE PROTEIN
  fold change: 0.98
Protein LMJF.29.2860 40S RIBOSOMAL PROTEIN S19-LIKE PROTEIN
  fold change: 1.34
Protein LMJF.30.0850 SURFACE PROTEIN AMASTIN, PUTATIVE
  fold change vs vehicle control: 1.12
Protein LMJF.30.1250 PYRIDOXAL KINASE, PUTATIVE
  fold change: 0.82
Protein LMJF.30.1940 SUCCINYL-COA:3-KETOACID-COENZYME A TRANSFERASE- LIKE PROTEIN
  fold change: 1.02
Protein LMJF.30.3190 3-HYDROXY-3-METHYLGLUTARYL-COA REDUCTASE
  fold change vs vehicle control: 0.77
Protein LMJF.30.3520 S-ADENOSYL[…]
  fold change vs vehicle control: 1.03
Protein LMJF.31.0440 CYTOSKELETON-[…] CAP5 5, PUTATIVE
  fold change vs vehicle control: 0.97
Protein LMJF.31.1130 N-ACYL-L-AMINO ACID AMIDOHYDROLASE, PUTATIVE
  fold change: 0.9
Protein LMJF.31.1640 THIOLASE PROTEIN-LIKE PROTEIN
  fold change vs vehicle control: 1.31
Protein LMJF.31.1800 AMINO ACID PERMEASE
  fold change: 0.96
Protein LMJF.31.2250 3,2-TRANS-ENOYL-COA ISOMERASE, MIT[…], PUTATIVE
  fold change: 1
Protein LMJF.31.2790 ADP-RI[…], PUTATIVE
  fold change vs vehicle control: 1.03
Protein LMJF.31.3130 […]-COA CARBOXYLASE BIOTINYLATED […]-LIKE PROTEIN
  fold change: 0.99
Protein LMJF.32.0010 HY[…], CONSERVED
  fold change: 0.78
Protein LMJF.32.0400 ATP-DEPENDENT RNA HELICASE, PUTATIVE
  fold change vs vehicle control: 1.02
Protein LMJF.32.0520 PROFILIN, PUTATIVE
  fold change vs vehicle control: 1.17
Protein LMJF.32.1000 […]-COMPLEX PROTEIN, PUTATIVE
  fold change: 0.92
Protein LMJF.32.3010 HY[…], CONSERVED,LEUCINE-RICH REPEAT PROTEIN, PUTATIVE
  fold change vs vehicle control: 1.47
Protein LMJF.32.3870 MYOSIN XXI
  fold change vs vehicle control: 0.97
Protein LMJF.33.0890, HY[…], CONSERVED
  fold change vs vehicle control: 1.03
Protein LMJF.33.1070 HY[…], UNKNOWN FUNCTION
  fold change vs vehicle control: 1.02
Protein LMJF.33.1330 CYSTEINE CONJUGATE BETA-LYASE, AMINOTRANSFERASE- LIKE PROTEIN
  fold change: 1.06
Protein LMJF.33.1610 PEPTIDASE M20/M25/M40, PUTATIVE
  fold change: 0.91
Protein LMJF.33.1630 CYCLOPHILIN 4, PUTATIVE
  fold change relative to vehicle control: 0.93
Protein LMJF.33.2300 UDP-GLC 4'-EPIMERASE, PUTATIVE
  fold change vs vehicle control: 0.98
Protein LMJF.33.2390 HEAT SHOCK PROTEIN, PUTATIVE
  fold change vs vehicle control: 0.99
Protein LMJF.33.2410 HY[…], CONSERVED
  fold change: 1.06
Protein LMJF.33.3150 40S RIBOSOMAL PROTEIN S13, PUTATIVE
  fold change: 1.18
Protein LMJF.34.3500 RUVB-LIKE 1 DNA HELICASE, PUTATIVE
  fold change: 1.19
Protein LMJF.34.3670 VACUOLAR ATP SYNTHASE CATALYTIC SUBUNIT A, PUTATIVE
  fold change: 0.9
Protein LMJF.34.3740 SERINE PALMITOYLTRANSFERASE-LIKE PROTEIN
  fold change: 0.95
Protein LMJF.34.4120 HY[…], CONSERVED
  fold change: 0.82
Protein LMJF.34.4370 20S […] 7 SUBUNIT, (PUTATIVE)
  fold change vs vehicle control: 1.2
Protein LMJF.35.0370 ATP-DEPENDENT DEAD-BOX RNA HELICASE, PUTATIVE
  fold change: 1.01
Protein LMJF.35.1380, MIT[…], BETA SUBUNIT, PUTATIVE
  fold change vs vehicle control: 1.16
Protein LMJF.35.1410 THREONYL-TRNA SYNTHETASE, PUTATIVE
  fold change vs vehicle control: 1.01
Protein LMJF.35.1720 CYCLOPHILIN 14, PUTATIVE
  fold change vs vehicle control: 1.09
Protein LMJF.35.2500 HY[…], CONSERVED
  fold change: 1.26
Protein LMJF.35.2730 ACYL-COA DEHYDROGENASE, PUTATIVE
  fold change: 1.14
Protein LMJF.35.3010 […],TRYPANOTHIONE-DEPENDENT […]
  fold change relative to vehicle control: 0.92
Protein LMJF.35.3100 ATP-DEPENDENT RNA HELICASE, PUTATIVE
  fold change vs vehicle control: 1.01
Protein LMJF.35.3340 6-phosphogluconate dehydrogenase
  fold change vs vehicle control: 1.11
Protein LMJF.35.3700 GIM5A PROTEIN, PUTATIVE,[…] PROTEIN
  fold change: 0.85
Protein LMJF.35.3840, […] 2 SUBUNIT, PUTATIVE
  fold change vs vehicle control: 0.92
Protein LMJF.35.3860 T-COMPLEX PROTEIN 1, ETA SUBUNIT, PUTATIVE
  fold change vs vehicle control: 1
Protein LMJF.35.4550 HY[…], CONSERVED
  fold change: 1.56
Protein LMJF.35.4770 CYCLOPHILIN 40
  fold change: 0.89
Protein LMJF.35.4850 […] 1 SUBUNIT, PUTATIVE
  fold change: 0.85
Protein LMJF.35.4860 HY[…], CONSERVED
  fold change: 0.98
Protein LMJF.35.5330 ISOPENTENYL-D[…]-ISOMERASE, PUTATIVE,ISOMERASE, PUTATIVE
  fold change relative to vehicle control: 1.32
Protein LMJF.36.0180 […] 2
  fold change vs vehicle control: 1.05
Protein LMJF.36.0620 HY[…], CONSERVED
  fold change vs vehicle control: 1.06
Protein LMJF.36.0990 40S RIBOSOMAL PROTEIN S10, PUTATIVE
  fold change vs vehicle control: 1.12
Protein LMJF.36.2020 CHAPERONIN HSP60, MIT[…]
  fold change vs vehicle control: 0.88
Protein LMJF.36.3460 HY[…], CONSERVED
  fold change vs vehicle control: 1.04
Protein LMJF.36.3760 60S RIBOSOMAL PROTEIN L10A, PUTATIVE
  fold change: 1.19
Protein LMJF.36.3840 GLYCYL TRNA SYNTHETASE, PUTATIVE
  fold change vs vehicle control: 0.95
Protein LMJF.36.4170 OXIDOREDUCTASE, PUTATIVE
  fold change vs vehicle control: 0.93
Protein LMJF.36.5010 40S RIBOSOMAL PROTEIN SA, PUTATIVE
  fold change vs vehicle control: 1.04
Protein LMJF.36.5620 ISOLEUCYL-TRNA SYNTHETASE, PUTATIVE
  fold change vs vehicle control: 0.99
Protein LMJF.36.6430 PROTEIN TRANSPORT PROTEIN SEC23-LIKE PROTEIN
  fold change vs vehicle control: 1.04
Protein LMJF.36.6760 HY[…], CONSERVED
  fold change: 0.97
Protein LMJF.36.6910 T-COMPLEX PROTEIN 1, THETA SUBUNIT, PUTATIVE
  fold change vs vehicle control: 1
Protein LMJF.36.6940 disulfide isomerase PDI
  fold change vs vehicle control: 1.23
Protein LMJF.[…] […] EXOPOLYPHOSPHATASE, PUTATIVE
  fold change vs vehicle control: 0.81
